Source: patent US20170332627A1, “AGROCHEMICAL RESINATES FOR AGRICULTURAL APPLICATIONS” (priority 2014, published 2017)
Values belong to the compound of their own block, whether it stands above or below them.

Assays:
[1] = Soil test (potting soil/sand, tap water) for release profile; type: physicochemical
Source text: To further explore behavior of the IER-AAI complex in conditions found in the soil, a soil test was developed to mimic in-vivo conditions by mixing potting soil with sand, based on the understanding that most soil in the field is not of the same quality as premium potting soil, but instead typically contains more clay or sand. The samples run through the soil test were WG01, WG02, WG05-WG10.
In this experiment, potting soil was mixed with sand in a 19:31 ratio. Then the desired amount of IER-AAI complex (the amount of resin that would allow the total AAI to be 25 mg) was mixed homogenously in with the soil. The Buchner funnel was fitted with filter paper and the filter paper was wet with a little bit of tap water. The Buchner funnel was then placed in an Erlenmeyer flask with a side arm fitted with a rubber adaptor. The side arm was hooked up to a vacuum and the vacuum turned on. Next, the sand/soil/IER-AAI mixture was poured into the Buchner funnel. 10 mL of tap water was poured evenly over the sand/soil/IER-AAI mixture and flooding was observed. Once the water drained into the Erlenmeyer flask, the Buchner funnel was removed and the water transferred into a glass vial. The Buchner funnel was replaced back on the Erlenmeyer flask, the vacuum turned back on, and another 10 mL of tap water was poured evenly over the sand/soil/IER-AAI mixture. This process was repeated until 10×10 mL fractions were collected. Each fraction was then analyzed for UV absorbance at 200-400 nm using a ThermoScientific model Evolution 201, diluting samples when necessary. Comparing the absorbance values against a calibration curve, the amount of AAI in each fraction was calculated.
The percent loading and release profile for each AAI was obtained based on the protocols described in Examples 14 and 15 respectively, except that the AAI content was held constant at 20 mg instead of 25 mg.

[2] = Sand column test, release of chloramben with DI water then 2M NaOH; type: physicochemical; conditions: for release profile in sand column (FIG. 1): result in words
Source text: To assess the extended release properties of our WDG and HSC formulations (prepared in accordance with Example 7) we employed a sand column method as described below, where the results of the sand column test can be extrapolated to represent in vivo soil conditions.
Sand column tests were run first with water and then with a 2M NaOH ionic solution. […] The rest of the sand column tests were then run with 2M NaOH; we selected the hydroxyl ion as a representative anion to illustrate the release of the AAI through ion exchange.
First, the sand to be used in the sand column was weighed out into a centrifuge tube. Then the sand was wetted with DI water until flowable and vortexed to mix. Next, the sand was introduced into a Lab-Crest Buret fitted with a Stopcock. DI water was then passed through the sand column to remove any sand that had stuck to the side of the buret. Excess water was drained, until the water level was just at the top of the sand. In a separate small centrifuge tube, the sand was mixed with the experimental sample, and this mixture was added to the top of the sand column. Chloramben control and samples formulated as WG01, WG02, and HSC01 (as described above) were tested.
For each Sample, the experiment was conducted as follows. […] 7×10 mL fractions were collected from the column in appropriately sized culture tubes at 10 mL fractions. The stopcock was closed as the water level reached the top of the sand. […] 7×10 mL fractions were collected in appropriately sized culture tubes. Each fraction was then analyzed for UV absorbance at 200-400 nm using a ThermoScientific model Evolution 201, diluting samples when necessary. Comparing the absorbance values against a calibration curve, the amount of AAI in each fraction was calculated.
The results of these experiments are shown in the graph in FIG. 1.
Fractions 1-7 were run with deionized water flushing through the column, while fractions 8-14 were run with 2 M NaOH flushing through the column. The arrow indicates where the changeover from DI water to NaOH occurred. […] Only when there was a counterion present for exchange (i.e. OH^− in the NaOH), did the chloramben in the test samples start to release more quickly.

[3] = benzoic acid, 25 mg total AAI, 10x10 mL tap water, FIG. 2
[4] = benzoic acid, 25 mg total AAI, 10x10 mL tap water, FIG. 3
[5] = benzoic acid, 25 mg total AAI, HSC comparison, FIG. 5
[6] = control, no eluent named in head
[7] = whole run, DI water then 2M NaOH, same value under both heads
[8] = chloramben, 25 mg total AAI, 10x10 mL tap water, FIG. 4
[9] = dicamba, 20 mg total AAI, FIG. 6
[10] = gibberellic acid, 20 mg total AAI, FIG. 9
[11] = imidacloprid, 20 mg total AAI, FIG. 8
[12] = nicosulfuron, 20 mg total AAI, FIG. 7

Structure (SMILES): O=C(O)c1ccccc1 [Benzoic Acid Control, Benzoic acid]
- Percent Released [1, 3]: 97%
- Total AAI Released [1, 3]: 24 mg
- Percent Release [1, 4]: 97%
- Total AAI Released [1, 4]: 24 mg
- Percent Release [1, 5]: 97%
- Total AAI Released [1, 5]: 24 mg

Structure (SMILES): Nc1cc(Cl)cc(C(=O)O)c1Cl [Chloramben Control, Chloramben]
- % chloramben released in first two fractions [2, 6]: 44%
- Total mg chloramben released [2, 6]: 20.92 mg
- release profile in sand column (FIG. 1) [2]: released more quickly
- release profile in sand column (FIG. 1) ([2]; listed as control chloramben powder): released very quickly
- % chloramben remaining [2, 7]: 30%
- % total chloramben released [2, 7]: 70%
- Percent Release [1, 8]: 71%
- Total AAI Released [1, 8]: 18 mg

- Percent Release [1, 9]: 100%
- Total AAI Released [1, 9]: 20 mg
Structure (SMILES): COc1c(Cl)ccc(Cl)c1C(=O)O [Dicamba Control, Dicamba]

- Percent Release [1, 10]: 99%
- Total AAI Released [1, 10]: 20 mg
Structure (SMILES): C=C1C[C@]23C[C@@]1(O)CC[C@H]2[C@@]12C=C[C@H](O)[C@@](C)(C(=O)O1)[C@H]2[C@@H]3C(=O)O [GA Control, Gibberellic Acid]

Structure (SMILES): O=[N+]([O-])NC1=NCCN1Cc1ccc(Cl)nc1 [ICD Control, Imidacloprid]
- Percent Release [1, 11]: 98%
- Total AAI Released [1, 11]: 20 mg

Structure (SMILES): COc1cc(OC)nc(NC(=O)NS(=O)(=O)c2ncccc2C(=O)N(C)C)n1 [NSN Control, Nicosulfuron]
- Percent Release [1, 12]: 52%
- Total AAI Released [1, 12]: 10 mg
